Six compounds from patent US20240336642A1 (The General Hospital Corporation, priority 2021, published 2024) can be followed below.

Data set [1] addresses h12/15-LOX (Homo sapiens (Human), UniProt P16050). As to the kind of experiment: 12/15-LOX enzyme inhibition IC50 assay (Examples 1 and 2). The settings on record: for Emax: read-out: Max % inhibition. It is filed as biochemical. The protocol:
Enzyme was then added to the cuvettes. […] The % inhibition for each test compound concentration were calculated as follows: […]

Data set [2] is described as follows: Solubility in formulation vehicles (Solutol HS-15/PEG400, Captisol). It counts as physicochemical. The settings on record: for solubility: aqueous with cosolvent or surfactant or cyclodextrin; for solution concentration achieved: 10% Solutol/90% PEG400. The protocol: Combinations of Solutol HS-15 (also known as Kolliphor HS-15) with PEG400 provided a good vehicle to solubilize the tested compounds. Specifically, 10% Solutol/90% PEG400 was used to prepare 20 mg/ml solutions of compound 1, compound 44, and compound 32. 10% Solutol/15% H2O/[…] led to 10 mg/ml solutions of the tested compounds.
(§1) 20 mg/ml were obtained in 20% Captisol, allowing for intravenous delivery in the mouse stroke model.

A short description of data set [3]: In vivo conversion of prodrug to parent compound. The method, then: FIG. 1 contains chemical schemes showing in vivo conversion of prodrug compounds 51, 52, 53 to their parent compounds 22, 1, and 1, respectively.
as §1

In data set [4] the test system is experimental stroke model in mice (MCAO). Put plainly: Mouse stroke model, filament middle cerebral artery occlusion (MCAO), infarct size. It is filed as in vivo. The method, then: Studies were carried out in experimental stroke model in mice, using the filament model of middle cerebral artery occlusion (MCAO). For intraperitoneal delivery, compounds were dissolved in DMSO. A number of exemplified compounds were able to reduce infarct size when given at a dosage of 40 mg/kg.
40 mg/kg cmpd. 1 were given i.p. at time of reperfusion. Infarct size was measured at 24 hours after 60 minutes MCAO.
MCAO (Experimental Middle Cerebral Artery Ischemia and Functional Recovery) experiment: 40 mg/kg of compound delivered intraperitoneally 2 h post reperfusion, 60 minutes MCAO, sacrifice at 24 h, infarct size determined by TTC staining.

Data set [5] can be described thus: Aqueous solubility of exemplified compounds (Example 3). It is filed as physicochemical. The conditions noted are these: for Sol: aqueous solubility.
A short description of data set [6]: Metabolic stability of exemplified compounds (Example 4). It is filed as in vitro ADME.
Data set [7] can be described thus: Hydrolysis of prodrug in plasma. It counts as in vitro ADME. The protocol: as §1

SMILES strings stand for the structures. Counter-ions that a name gives are not always drawn.

Sequence of h12/15-LOX (P16050 whole entry): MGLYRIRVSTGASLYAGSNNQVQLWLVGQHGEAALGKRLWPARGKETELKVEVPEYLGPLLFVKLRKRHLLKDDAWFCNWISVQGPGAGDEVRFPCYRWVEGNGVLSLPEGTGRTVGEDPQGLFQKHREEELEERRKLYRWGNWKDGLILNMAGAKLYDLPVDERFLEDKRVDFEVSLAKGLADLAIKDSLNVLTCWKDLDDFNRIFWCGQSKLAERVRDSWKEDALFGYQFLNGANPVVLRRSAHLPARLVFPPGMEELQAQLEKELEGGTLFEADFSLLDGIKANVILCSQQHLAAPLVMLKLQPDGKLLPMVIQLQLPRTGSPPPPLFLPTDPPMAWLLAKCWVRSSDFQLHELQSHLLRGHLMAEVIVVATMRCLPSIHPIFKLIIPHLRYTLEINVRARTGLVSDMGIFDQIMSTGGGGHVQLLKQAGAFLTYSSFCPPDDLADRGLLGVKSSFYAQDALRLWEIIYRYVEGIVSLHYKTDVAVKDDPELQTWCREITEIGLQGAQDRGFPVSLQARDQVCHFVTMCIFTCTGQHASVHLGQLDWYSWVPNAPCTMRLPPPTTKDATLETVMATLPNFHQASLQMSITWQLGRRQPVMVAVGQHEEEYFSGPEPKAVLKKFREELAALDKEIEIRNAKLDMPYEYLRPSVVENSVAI

What is called IC50 is the midpoint of a concentration-inhibition curve. A high value points to lower potency. A word on the solubility: it is how much of the substance goes into solution per volume. `CN(C)CCCOC(=O)N(C)c1oc(-c2cc(Cl)cc(Cl)c2Cl)nc1C#N` [Compound 52, 3-(dimethylamino) propyl (4-cyano-2-(2,3,5-trichlorophenyl)oxazol-5-yl)(methyl) carbamate hydrochloride] registered an IC50 in data set [1] of 1.4 µM. The solubility was 20 mg/mL in data set [2] (20% Captisol) and 27 mg/mL in data set [2] (50% Captisol solution). Also, the “in vivo processing of prodrug” value in data set [3] is listed as “processed to the parent molecule, compound 1”. In addition, the infarct size reduction in data set [4] (40 mg/kg i.v. in 50% Captisol, immediately after reperfusion, 24 h, hydrochloride) stood at 31.7%; in data set [4] (40 mg/kg i.v. in 50% Captisol, immediately after reperfusion, 24 h, listed as Cmpd. 52, hydrochloride) it was 31.7%.
By microsomal CLint is commonly meant a measure of how fast metabolising enzymes remove a compound, apart from limits set by blood flow. A high value points to faster metabolism. For `COCCOCCNc1oc(-c2cc(Cl)cc(Cl)c2Cl)nc1C#N` [Compound 32, 5-((2-(2-Methoxyethoxy)ethyl)amino)-2-(2,3,5-trichlorophenyl) oxazole-4-carbonitrile], the Sol result in data set [5] is “++ (“++” 10-20 μM)”. It took 0.61 µM to reach half-maximal inhibition in data set [1] (IC50). Besides, the Emax in data set [1] (h12/15-LOX) was 96%. In addition, the solution concentration achieved in data set [2] is 20 mg/mL. Moreover, the infarct size reduction in data set [4] (40 mg/kg intraperitoneally 2 h post reperfusion, 60 minutes MCAO, sacrifice at 24 h, TTC staining, listed as Cmpd. 32) amounted to 31.8%; in data set [4] (40 mg/kg intraperitoneally 2 h post reperfusion, 60 minutes MCAO, sacrifice at 24 h, TTC staining, listed as compound 32) it was 31.8%. For the same compound, the “Extr (EH)” value in data set [6] (Human liver microsomes), in data set [6] (Mouse liver microsomes) and in data set [6] (Rat liver microsomes) was “* (“*” <50%)” in each case. Further, the microsomal CLint in data set [6] (Human liver microsomes), in data set [6] (Mouse liver microsomes) and in data set [6] (Rat liver microsomes) was below 20 µL/min/mg each time.
Consider `N#Cc1nc(-c2cc(Cl)cc(Cl)c2Cl)oc1NCCCCCOP(=O)(O)O` [Compound 51, 5-((4-cyano-2-(2,3,5-trichlorophenyl)oxazol-5-yl)amino) pentyl dihydrogen phosphate], for which, in data set [5], the “aqueous solubility versus parent compound” value is recorded as “high aqueous solubility versus parent compound 22”. The compound also returned an IC50 in data set [1] above 20 µM. For the same compound, the hydrolysis in plasma entry in data set [7] is “susceptible to hydrolysis in plasma”.
In the case of `N#Cc1nc(-c2cc(Cl)cc(Cl)c2Cl)oc1NCCCCO` [Compound 17, 5-((4-Hydroxybutyl)amino)-2-(2,3,5-trichlorophenyl)oxazole-4-carbonitrile], the Sol result in data set [5] is given as “++ (“++” 10-20 μM)”. In data set [1], this compound gave an IC50 of 1.9 µM. Further, the Emax in data set [1] (h12/15-LOX) amounted to 100%. Further, the “Extr (EH)” value in data set [6] (Human liver microsomes), in data set [6] (Mouse liver microsomes) and in data set [6] (Rat liver microsomes) was “* (“*” <50%)” in each case. Further, the microsomal CLint in data set [6] (Human liver microsomes), in data set [6] (Mouse liver microsomes) and in data set [6] (Rat liver microsomes) was below 20 µL/min/mg throughout.
Compound `[2H]C([2H])([2H])Nc1oc(-c2cc(Cl)cc(Cl)c2Cl)nc1C#N` [Compound 44, 5-((methyl-d3)amino)-2-(2,3,5-trichlorophenyl) oxazole-4-carbonitrile] had an IC50 in data set [1] of 0.09 µM. Besides, in data set [1] (h12/15-LOX), the Emax came to 91%. In addition, the solution concentration achieved in data set [2] was 20 mg/mL. Further, in data set [4] (40 mg/kg intraperitoneally 2 h post reperfusion, 60 minutes MCAO, sacrifice at 24 h, TTC staining), the infarct size reduction is 29.6%.
Take `COCCOCCCCNc1oc(-c2cc(Cl)cc(Cl)c2Cl)nc1C#N` [Compound 48, 5-((4-(2-Methoxyethoxy)butyl)amino)-2-(2,3,5-trichlorophenyl)oxazole-4-carbonitrile]: the Sol entry in data set [5] is reported as “+ (“+” < 10 μM)”. In data set [1], this compound displayed an IC50 of 0.62 µM. In data set [1] (h12/15-LOX), the Max % inhibition is 100%. For the same compound, the CLint result in data set [6] (Human liver microsomes) was “++ (“++” 20-100 μL/min/mg)”; in data set [6] (Mouse liver microsomes), “+++ (“+++” 100-200 μL/min/mg)”; in data set [6] (Rat liver microsomes) it was “++ (“++” 20-100 μL/min/mg)”. The “Extr (EH)” value in data set [6] (Human liver microsomes), in data set [6] (Mouse liver microsomes) and in data set [6] (Rat liver microsomes) was “** (“**” 50-100%)” each time.
